In article PMC8966651, “PKPD Modeling of the Inoculum Effect of Acinetobacter baumannii on Polymyxin B in vivo” (Frontiers in Pharmacology, 2022):
Where a name gives a salt, the structure may show the parent alone. Read-outs that look alike come from different tables or passages of the source. Bridge positions count the residues as written; N and C are the ends. Square brackets hold non-standard residues; d marks the D form. Peptide text beside a SMILES is read from it. * marks the point of attachment. X1 = CC[C@H](C)CCCCC(=O)*; Dab = NCC[C@H](N)C(=O)O

Assays:
[1] = system: A. baumannii (CS01); test: Neutropenic mouse thigh infection model, bacterial counts after PMB; assay type: in vivo, Acinetobacter baumannii
Description: A clinical strain of A. baumannii (CS01), isolated from a patient with a meningitis (Seville, Spain) before treatment with CST, was used during this study ([López-Rojas et al., 2013]). Before each experiment, the strain was cultured in 5 ml of cation adjusted Muller-Hinton broth II (MHB) (Biomérieux, Marcy-l’Etoile, France) and incubated overnight at 37 ± 2°C with constant shaking (150–170 rpm). This overnight suspension was diluted 1:50 in MHB and was incubated with constant shaking at 35°C during 2 h until an OD600nm of 0.26 was achieved (Ultrospec10, Biochrom Ltd., Cambridge, United Kingdom), corresponding to a bacterial count of 10^8 CFU/ml in exponential growth phase. The bacterial suspension was centrifuged (3,000 rpm, 6 min), broth was removed and replaced by the same volume of sterile saline solution. This suspension was then diluted to obtain inocula of 10^7 and 10^6 CFU/ml. Samples of the inoculation solutions were serially diluted on saline, plated on Muller-Hinton agar plates (Biomérieux, Marcy-l’Etoile, France) and incubated overnight at 37°C.
(§1) Animal experiments were carried out according to the EC Directive 2010/63/EU. They were approved by the local ethics committee (COMETHEA) and registered by the French Ministry of Higher Education and Research (approval numbers: 2019022216097190 and 2017072415099072). Five-week-old male Swiss RjOrl mice (n = 296) weighing 34 ± 2 g (mean ± standard deviation [SD]) were obtained from Janvier Labs (Saint-Berthevin, France). All animals were acclimatized in ventilated racks in a temperature-regulated environment with a 12 h light-dark cycle, with free access to food and water for a minimum of 5 days before the beginning of the experiment. Neutropenia was induced by intraperitoneal administrations of cyclophosphamide at 150 and 100 mg/kg, 4 days and 1 day prior to experimental infection, respectively ([Landersdorfer et al., 2018]). Thigh infection was induced by intramuscular administration of 0.1 ml of a bacterial suspension of 10^6, 10^7 or 10^8 CFU/ml (corresponding to 10^5, 10^6 and 10^7 CFU/thigh, respectively), into one of the posterior thigh muscles. Thus, three groups of mice were distinguished according to the inoculum injected (n = 76, 146 and 74 for 10^5, 10^6 and 10^7 CFU/thigh, respectively) Each group was divided into two subgroups: treated (n = 48, 116 and 45 for 10^5, 10^6 and 10^7 CFU/thigh, respectively) and control mice (n = 28, 30 and 29 for 10^5, 10^6 and 10^7 CFU/thigh, respectively).
(§2) Two hours after bacterial inoculation, mice received either a single subcutaneous administration of PMB (1, 15 or 40 mg/kg for mice infected with 10^6 and 10^7 CFU/thigh, and 15 or 40 mg/kg for mice infected with 10^5 CFU/thigh), or a subcutaneous administration of saline solution (control group).
Mice (n = 240) were sacrificed at 6 different time points: just prior to the start of the therapy (0 h) and at 2, 4, 6, 8 and 24 h after PMB administration. A total of 3-6 mice were sacrificed at each time point. Thigh muscles were collected and homogenized with 1 ml of sterile saline solution using potters Elvehjem-type tissue grinders (Thermo Fischer Scientific, Illkirch-Graffenstaden, France). Homogenates were serially diluted in saline, plated on Muller-Hinton agar plates and incubated overnight at 37°C. Bacterial colonies were counted and expressed as log10 numbers of CFU/thigh. The lower limit of quantification (LOQ) was set to 800 CFU/ml corresponding to 2.9 log10 CFU/thigh.

[2] = PMB pharmacokinetics after a single subcutaneous dose in neutropenic thigh-infected mice (two-compartment model); assay type: in vivo; details: for Tmax: neutropenic mice infected with 10^6 CFU/thigh, n = 3 per time point, read-out: time to peak (Tmax)
Description: as §1, §2
The PK of PMB was determined in neutropenic mice infected with the bacterial inoculum size of 10^6 CFU/thigh (n = 56). Mice were anesthetized by isoflurane (AbbVie, Rungis, France) inhalation (3%) for 5 min at each sampling time. Blood samples were collected by intracardiac puncture into heparinized tubes up to 24 h after PMB administration for a total of 7 time points per dose level (n = 3 animals per time point). Plasma was separated from the whole blood after centrifugation at 4,000 rpm for 10 min at 4°C and divided into two samples. The first sample was used to determine total PMB concentrations and the second one (0.15 ml) was ultrafiltered (4000 rpm for 30 min at room temperature) using Centrifree® ultrafiltration devices from Millipore (Merck KGaA) to determine unbound PMB concentrations and consequently protein binding. The non-specific binding of PMB to the membrane of the Centrifree® ultrafiltration devices ([Sader et al., 2012]) was determined by ultrafiltration of PMB solutions in phosphate buffer (pH7.2) at concentrations ranging from 0.2 to 7.5 mg/L and was used to correct ultrafiltrate concentrations. Plasma samples and ultrafiltrates were stored at −20°C until further analysis. Total and unbound PMB concentrations were determined by a liquid chromatography tandem mass spectrometry (LS-MS/MS) method (Supplemental Material).
A PKPD model was developed in two steps to quantify the exposure-effect relationship of PMB in infected mice. First, time courses of total and unbound PMB concentrations were modeled and then, PK parameters were fixed during development of the PD part of the PKPD model.
Different structural models including one, two or three compartments, linear, nonlinear (Michaelis-Menten) or parallel linear/nonlinear elimination were evaluated to describe PK data. Models with linear and nonlinear absorption were also tested. Additive, proportional and exponential residual error models were explored.
Model selection was based on objective function value (OFV) and goodness of fit (GOF) plots. When two models were nested, a decrease in OFV of at least 3.84 (chi square 1df p = 0.05) was needed to select the most complex model. […]

[3] = final PK model, estimate (%RSE)

SMILES: CC[C@H](C)CCCCC(=O)N[C@@H](CCN)C(=O)N[C@H](C(=O)N[C@@H](CCN)C(=O)N[C@H]1CCNC(=O)[C@H]([C@@H](C)O)NC(=O)[C@H](CCN)NC(=O)[C@H](CCN)NC(=O)[C@H](CC(C)C)NC(=O)[C@@H](Cc2ccccc2)NC(=O)[C@H](CCN)NC1=O)[C@@H](C)O [PMB, Polymyxin B sulfate] (X1-[Dab]T[Dab][Dab][Dab][dF]L[Dab][Dab]T; lactam 4-C)
- efficacy of PMB ([1]; 15 mg/kg SC, two highest inocula (10^6 and 10^7 CFU/thigh)): moderate efficacy
- bacterial load reduction ([1]; 24 h after 15 mg/kg PMB SC, inoculum 10^5 CFU/thigh): 2.6 ± 1.2 log10 CFU/thigh
- bacterial load reduction ([1]; 24 h after 40 mg/kg PMB SC, inoculum 10^5 CFU/thigh): 2.5 ± 2.3 log10 CFU/thigh
- bacterial load reduction ([1]; 24 h after 40 mg/kg PMB SC, inoculum 10^6 CFU/thigh): 3.5 ± 0.9 log10 CFU/thigh
- bacterial load reduction ([1]; 24 h after 40 mg/kg PMB SC, inoculum 10^7 CFU/thigh): 2.1 ± 1.4 log10 CFU/thigh
- bacterial counts compared with control group ([1]; PMB 1 mg/kg single SC dose, data not shown): no differences in bacterial counts with the control group
- increase of total Cmax when dose increased from 1 to 40 mg/kg ([2]; SC, plasma, infected mice): 15 fold
- Maximum absorption rate ([2]; final PK model, saturable SC absorption, estimate (%RSE), doses 1, 15, 40 mg/kg): 14.7 (10.3) mg/h/kg
- Amount in the subcutaneous compartment that produces 50% of the maximum absorption rate [2, 3]: 2.24 (41.4) mg/kg
- Distribution volume of the central compartment [2, 3]: 0.740 (16.7) L/kg
- Distribution volume of the peripheral compartment [2, 3]: 0.743 (16.4) L/kg
- Intercompartmental clearance [2, 3]: 0.315 (27.3) L/h/kg
- Cmax ([2]; male, Swiss RjOrl, mouse, plasma, sc, 1 mg/kg, plasma, single SC dose 1 mg/kg, mean ± SD, infected mice 10^6 CFU/thigh, LC-MS/MS, SD, read-out: Total PMB peak concentration (Cmax)): 920 ± 140 ng/mL
- Cmax ([2]; male, Swiss RjOrl, mouse, plasma, sc, 40 mg/kg, plasma, single SC dose 40 mg/kg, mean ± SD, infected mice 10^6 CFU/thigh, LC-MS/MS, SD, read-out: Total PMB peak concentration (Cmax)): 13800 ± 810 ng/mL
- Cmax ([2]; male, Swiss RjOrl, mouse, plasma, sc, 40 mg/kg, this study, SC, highest dose 40 mg/kg, read-out: peak concentrations at the highest dose): 15000 ng/mL
- CL/F ([2]; male, Swiss RjOrl, mouse, plasma, sc, final PK model, linear elimination, estimate (%RSE), read-out: Clearance (converted)): 7.28 mL/min/kg
- Tmax ([2]; male, Swiss RjOrl, mouse, plasma, single SC dose 1 mg/kg, LC-MS/MS): 0.5 h
- Tmax ([2]; male, Swiss RjOrl, mouse, plasma, single SC dose 40 mg/kg, LC-MS/MS): 2 h
